Results taken from patent US10472334B2, “Small molecules for inhibiting male fertility” (The University of North Carolina at Chapel Hill, priority 2014, dated 2019).
Like-named read-outs stand apart in the source and are kept apart here.

What was measured:
recombinant human EPPIN = target: T1, recombinant human EPPIN (Homo sapiens, UniProt O95925); assay: AlphaScreen epitope assay: inhibition of anti-EPPIN (S21C, C-terminal domain) antibody binding to histidine-tagged recombinant human EPPIN; details: Figure 2; TZ4_121 concentration-response, percent of control value vs. log concentration; His-tagged rhEPPIN (E. coli, lacks part of N-terminal secretory signal) on NTA-donor beads, anti-EPPIN S21C on protein A-acceptor beads; spread printed +/- 10.4
T1 construct: His-tagged (FLAG tag also stated); E. coli M15[pREP-4], Ni-NTA purified; AlphaScreen with anti-EPPIN S21C antibody
T1 sequence (O95925 22-133): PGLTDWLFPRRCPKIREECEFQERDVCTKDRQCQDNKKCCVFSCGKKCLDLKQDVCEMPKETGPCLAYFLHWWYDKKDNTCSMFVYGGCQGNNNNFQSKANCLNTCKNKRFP
From the text: Two assays for high throughput screening (HTS) of compounds have been established and validated. In one embodiment, these assays are based on an adaptation of the AlphaScreen™ assay developed by PerkinElmer (Waltham, Mass.). In the AlphaScreen™ (amplified luminescent proximity homogeneous assay) assay donor and acceptor beads (˜200 nm) are employed to hold interacting protein molecules. When the interacting protein molecules bind (for example EPPIN {on the donor bead} and anti-EPPIN {on the acceptor bead}), singlet state oxygen molecules diffuse from the donor bead to the acceptor bead (˜4 μsec) and fluorophores subsequently emit light at 520-620 nm. In the primary compound screen, histidine-tagged recombinant human EPPIN is attached to NTA-donor beads and anti-EPPIN (S21C; against the EPPIN C-terminal domain) is attached to protein A-acceptor beads. This epitope specific assay gives strong and stable binding between EPPIN and the antibody. […]

[1] = In vitro toxicity, cell viability; format: cell-based
Procedure: The percent of control activity was calculated by comparing the fluorescence reading in the presence of test compound to that in the absence of a test (control) compound. Subsequently, the percent of inhibition was calculated by subtraction of the percent of control value from 100. IC50 values were determined by non-linear regression analysis of the concentration-response curves. These parameters are obtained by Hill equation curve fitting. See, for example, Nociari, M. M. et al. (1998), J. Immunol. Meth., 213: 157-167.

human spermatozoa = assay: Intracellular free calcium in Fluo-4 loaded spermatozoa; format: cell-based
Procedure: A series of experiments was performed to determine the mechanism of action of the compounds described herein. The experiments were carried out as described in O'Rand and Widgren, “Loss of Calcium in Human Spermatozoa via EPPIN, the Semenogelin Receptor,” Biology of Reproduction, (2012) 86(2):55, 1-7.
Fluo-4 AM-loaded spermatozoa were pipetted into 96-well black-walled plates (Perkin Elmer, Waltham, Mass.) at 1.13105-0.93105 spermatozoa/well in 50 μl of M16M at 378 C, and read in a BioTek (Winookski, Vt.) Synergy2 Multiplatform automated plate reader (with heater and shaker). Wells were excited using a 485/20 filter, and emission was read with a 528/20 filter, and data were acquired using a kinetic modification of the Alexafluor 488 protocol in the Gen5 software program (BioTek). […] After treatment of spermatozoa in each well with control or test reagents was completed (10-15 min), the Fluo-4 in the spermatozoa in each well was calibrated by adding ionomycin (2.5 μM), followed 15 min later by the addition of Mn^2 (2 mM MnCl2) to bring the fluorescence (F) to 30% of that of the saturated dye. […] Using these values for each well, the Fmax and Fmin were calculated according to the method of Kao et al. [Kao et al., J Biol Chem. 1989; 264:8179-8184.].
Fluorescence measurements were converted to calcium concentration according to the equation [Ca^2+]=Kd([F−Fmin]/[Fmax−F]) […]

SMILES: CCOC(=O)CSc1nc(NNC(=O)OC)nc(Nc2ccc(NC(=O)OC)c(O)c2)n1 [TZ4_121, [4-(3-Hydroxy-4-methoxycarbonylamino-phenylamino)-6-(N′methoxycarbonyl-hydrazino)-1,3,5-triazin-2-ylsulfanyl]-acetic acid ethyl ester]
- IC50 (recombinant human EPPIN): 38.2 µM
- IC50 ([1]; FIG. 2, read-out: cell viability IC50): ~17 µM
- IC50 ([1]; read-out: In vitro toxicology IC50): ~20 µM
- change in intracellular calcium of spermatozoa (human spermatozoa): significant loss of calcium
